The text below walks through data of patent US10160747B2, “Compounds and methods for kinase modulation, and indications therefor” (Plexxikon Inc., priority 2016, dated 2018).

Structures are written as SMILES.

For one assay, the target named is T1, FLT3-ITD (Homo sapiens, UniProt P36888).
T1 sequence (P36888 1-993): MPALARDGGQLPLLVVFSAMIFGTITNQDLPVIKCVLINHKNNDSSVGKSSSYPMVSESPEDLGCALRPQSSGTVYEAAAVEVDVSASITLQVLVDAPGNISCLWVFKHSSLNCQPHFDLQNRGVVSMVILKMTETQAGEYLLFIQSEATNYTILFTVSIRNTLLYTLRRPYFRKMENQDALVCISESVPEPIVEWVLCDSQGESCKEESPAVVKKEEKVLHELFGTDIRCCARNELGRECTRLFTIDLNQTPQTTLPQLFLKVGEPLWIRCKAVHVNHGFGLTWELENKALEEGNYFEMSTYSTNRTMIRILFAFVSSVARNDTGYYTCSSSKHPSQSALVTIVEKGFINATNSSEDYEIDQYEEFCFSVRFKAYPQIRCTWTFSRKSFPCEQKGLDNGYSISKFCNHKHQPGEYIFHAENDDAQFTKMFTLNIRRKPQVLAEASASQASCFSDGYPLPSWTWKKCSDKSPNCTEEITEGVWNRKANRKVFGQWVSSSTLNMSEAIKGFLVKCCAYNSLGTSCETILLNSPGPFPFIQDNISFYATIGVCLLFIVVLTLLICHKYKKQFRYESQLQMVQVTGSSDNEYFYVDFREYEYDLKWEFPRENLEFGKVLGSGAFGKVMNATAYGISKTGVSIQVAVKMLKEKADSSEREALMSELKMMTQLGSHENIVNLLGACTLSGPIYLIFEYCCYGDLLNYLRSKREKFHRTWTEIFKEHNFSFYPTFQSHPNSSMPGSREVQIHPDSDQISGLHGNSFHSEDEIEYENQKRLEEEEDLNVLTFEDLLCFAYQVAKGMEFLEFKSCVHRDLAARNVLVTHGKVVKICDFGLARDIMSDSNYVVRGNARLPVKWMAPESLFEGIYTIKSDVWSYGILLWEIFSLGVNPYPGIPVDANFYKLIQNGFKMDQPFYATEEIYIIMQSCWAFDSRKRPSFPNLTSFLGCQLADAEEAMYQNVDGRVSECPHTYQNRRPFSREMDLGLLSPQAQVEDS
Nature of the assay: FLT3-ITD recombinant enzyme kinase assay (AlphaScreen). The assay is classed as biochemical. To be noted: 8 pt; read-out: FLT3_ITD 8 pt: IC50. A digest of the protocol:
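Kinase activity of recombinant FLT3-ITD, FLT3-D835Y and c-KIT was followed via phosphotyrosine formation on a 30 nM biotin-peptide substrate, captured on streptavidin donor and anti-phosphotyrosine acceptor AlphaScreen beads. ATP was set at 10 μM for FLT3 and 100 μM for c-KIT.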

In assay [1] the test system is MOLM-14 D835Y (endogenous FLT3 ITD and transfected FLT3 D835Y). Nature of the assay: MOLM-14 D835Y cell proliferation assay (CellTiter-Glo). The assay is classed as cell-based. To be noted: Homo sapiens, MOLM-14, 72 h; 3 d growth, GMean. An outline of the steps:
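MOLM-14 derivatives carrying D835Y or F691L, selected under escalating AC220, were seeded at 1×10^4 cells/well and exposed to an 8-point 1:3 compound series (1 to 0.00046 μM, 0.2% DMSO final) for three days at 37° C., 5% CO2. CellTiter-Glo luminescence (ATP content) versus concentration gave IC50.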
On the technique in general: In ATP-based viability assays light output follows the ATP content of the culture.

On to `O=C(Cc1ccc(-c2cnc(Nc3cnn(C4CC4)c3)nc2)cc1F)Nc1cc(C(F)(F)F)ccn1` [Compound P-0244, 2-[4-[2-[(1-cyclopropylpyrazol-4-yl)amino]pyrimidin-5-yl]-2-fluoro-phenyl]-N-[4-(trifluoromethyl)-2-pyridyl]acetamide], for which the IC50 (at FLT3-ITD; in assay [1]) was 0.0001 to 10 µM throughout.
For the compound `COCCn1cc(Nc2ncc(-c3ccc(CC(=O)Nc4cc(C(F)(F)F)ccn4)cc3)cn2)cn1` [Compound P-0222, 2-[4-[2-[[1-(2-methoxyethyl)pyrazol-4-yl]amino]pyrimidin-5-yl]phenyl]-N-[4-(trifluoromethyl)-2-pyridyl]acetamide], the IC50 (at FLT3-ITD; in assay [1]) was 0.0001 to 10 µM in each case.
Regarding `Cc1ncc(NC(=O)Cc2ccc(-c3cnc4[nH]c(C#CC(C)(C)O)cc4c3)cc2)cc1C(F)(F)F` [Compound P-0220, 2-[4-[2-(3-hydroxy-3-methyl-but-1-ynyl)-1H-pyrrolo[2,3-b]pyridin-5-yl]phenyl]-N-[6-methyl-5-(trifluoromethyl)-3-pyridyl]acetamide], the IC50 (at FLT3-ITD; in assay [1]) was 0.0001 to 10 µM throughout.
As to `O=C(Cc1ccc(-c2cnc(Nc3cnn(C4CC4)c3)nc2)cc1)Nc1ccc(C(F)(F)F)nc1` [Compound P-0235, 2-[4-[2-[(1-cyclopropylpyrazol-4-yl)amino]pyrimidin-5-yl]phenyl]-N-[6-(trifluoromethyl)-3-pyridyl]acetamide], the IC50 (on FLT3-ITD; in assay [1]) was 0.0001 to 10 µM throughout.
For the compound `COCCn1cc(Nc2ncc(-c3ccc(CC(=O)Nc4ccc(C(F)(F)F)nc4)c(F)c3)cn2)cn1` [Compound P-0268, 2-[2-fluoro-4-[2-[[1-(2-methoxyethyl)pyrazol-4-yl]amino]pyrimidin-5-yl]phenyl]-N-[6-(trifluoromethyl)-3-pyridyl]acetamide], the IC50 (at FLT3-ITD; in assay [1]) was 0.0001 to 10 µM throughout.
In the case of `O=C(Cc1ccc(-c2cnc(Nc3cnn(C4CC4)c3)nc2)cc1F)Nc1ccc(C(F)(F)F)nc1` [Compound P-0242, 2-[4-[2-[(1-cyclopropylpyrazol-4-yl)amino]pyrimidin-5-yl]-2-fluoro-phenyl]-N-[6-(trifluoromethyl)-3-pyridyl]acetamide], the IC50 (at FLT3-ITD; in assay [1]) was 0.0001 to 10 µM each time.
As to `COc1ncc(NC(=O)Cc2ccc(-c3cnc4[nH]nc(N)c4c3)cc2)cc1C(F)(F)F` [Compound P-0216, 2-(4-(3-amino-1H-pyrazolo[3,4-b]pyridin-5-yl)phenyl)-N-(6-methoxy-5-(trifluoromethyl)pyridin-3-yl)acetamide], the IC50 (at FLT3-ITD; in assay [1]) was 0.0001 to 10 µM each time.
As to `Cn1cc(Nc2ncc(-c3ccc(CC(=O)Nc4cncc(C(F)(F)F)c4)cc3F)cn2)cn1` [Compound P-0205, 2-[3-fluoro-4-[2-[(1-methylpyrazol-4-yl)amino]pyrimidin-5-yl]phenyl]-N-[5-(trifluoromethyl)-3-pyridyl]acetamide], the IC50 (at FLT3-ITD; in assay [1]) was 0.0001 to 10 µM throughout.
`COc1ncc(NC(=O)Cc2ccc(-c3cnc4[nH]nc(C5CC5)c4c3)cc2)cc1C(F)(F)F` [Compound P-0263, 2-[4-(3-cyclopropyl-1H-pyrazolo[3,4-b]pyridin-5-yl)phenyl]-N-[6-methoxy-5-(trifluoromethyl)-3-pyridyl]acetamide] showed an IC50 in assay [1] of 0.0001 to 10 µM.
On the same count and under the same terms, under `COc1ncc(NC(=O)Cc2ccc(-c3cnc4[nH]c(-c5ccc(C#N)nc5)cc4c3)cc2F)cc1C(F)(F)F` [Compound P-0011, 2-[4-[2-(6-cyano-3-pyridyl)-1H-pyrrolo[2,3-b]pyridin-5-yl]-2-fluoro-phenyl]-N-[6-methoxy-5-(trifluoromethyl)-3-pyridyl]acetamide] stands 0.0001 to 10 µM.
The same measure, in the same setting: under `CCn1cc(Nc2ncc(-c3ccc(CC(=O)Nc4cnc(C)c(C(F)(F)F)c4)cc3F)cn2)cn1` [Compound P-0248, 2-[4-[2-[(1-ethylpyrazol-4-yl)amino]pyrimidin-5-yl]-3-fluoro-phenyl]-N-[6-methyl-5-(trifluoromethyl)-3-pyridyl]acetamide] stands 0.0001 to 10 µM; under `CCn1cc(Nc2ncc(-c3cc(F)c(CC(=O)Nc4cnc(OC)c(C(F)(F)F)c4)cc3F)cn2)cn1` [Compound P-0247, 2-[4-[2-[(1-ethylpyrazol-4-yl)amino]pyrimidin-5-yl]-2,5-difluoro-phenyl]-N-[6-methoxy-5-(trifluoromethyl)-3-pyridyl]acetamide], 0.0001 to 10 µM.
Still for that read-out and setting: to `COc1ncc(NC(=O)Cc2ccc(-c3cnc4[nH]c(-c5ccnc(C#N)c5)cc4c3)c(F)c2)cc1C(F)(F)F` [Compound P-0016, 2-[4-[2-(2-cyano-4-pyridyl)-1H-pyrrolo[2,3-b]pyridin-5-yl]-3-fluoro-phenyl]-N-[6-methoxy-5-(trifluoromethyl)-3-pyridyl]acetamide] belongs 0.0001 to 10 µM.
`COc1ncc(NC(=O)Cc2cc(F)c(-c3cnc(Nc4cnn(C)c4)nc3)cc2F)cc1C(F)(F)F` [Compound P-0208, 2-[2,5-difluoro-4-[2-[(1-methylpyrazol-4-yl)amino]pyrimidin-5-yl]phenyl]-N-[6-methoxy-5-(trifluoromethyl)-3-pyridyl]acetamide] displayed an IC50 in assay [1] of 0.0001 to 10 µM.
The same measure, in the same setting: to `CCn1cc(Nc2ncc(-c3cc(F)c(CC(=O)Nc4cnc(C)c(C(F)(F)F)c4)cc3F)cn2)cn1` [Compound P-0249, 2-[4-[2-[(1-ethylpyrazol-4-yl)amino]pyrimidin-5-yl]-2,5-difluoro-phenyl]-N-[6-methyl-5-(trifluoromethyl)-3-pyridyl]acetamide] belongs 0.0001 to 10 µM; to `COc1ncc(NC(=O)Cc2ccc(-c3cnc4[nH]nc(C5CC5)c4c3)cc2F)cc1C(F)(F)F` [Compound P-0262, 2-[4-(3-cyclopropyl-1H-pyrazolo[3,4-b]pyridin-5-yl)-2-fluoro-phenyl]-N-[6-methoxy-5-(trifluoromethyl)-3-pyridyl]acetamide], 0.0001 to 10 µM.
The same measure, in the same setting: under `COc1ncc(NC(=O)Cc2ccc(-c3cnc4[nH]c(-c5ccc(C#N)nc5)cc4c3)c(F)c2)cc1C(F)(F)F` [Compound P-0014, 2-[4-[2-(6-cyano-3-pyridyl)-1H-pyrrolo[2,3-b]pyridin-5-yl]-3-fluoro-phenyl]-N-[6-methoxy-5-(trifluoromethyl)-3-pyridyl]acetamide] stands 0.0001 to 10 µM; under `CCn1cc(Nc2ncc(-c3ccc(CC(=O)Nc4cnc(OC)c(C(F)(F)F)c4)cc3F)cn2)cn1` [Compound P-0246, 2-[4-[2-[(1-ethylpyrazol-4-yl)amino]pyrimidin-5-yl]-3-fluoro-phenyl]-N-[6-methoxy-5-(trifluoromethyl)-3-pyridyl]acetamide], 0.0001 to 10 µM.
Same read-out and setting: under `COc1ncc(NC(=O)Cc2ccc(-c3cnc4[nH]c(-c5cnn(C(F)F)c5)cc4c3)cc2F)cc1C(F)(F)F` [Compound P-0015, 2-[4-[2-[1-(difluoromethyl)pyrazol-4-yl]-1H-pyrrolo[2,3-b]pyridin-5-yl]-2-fluoro-phenyl]-N-[6-methoxy-5-(trifluoromethyl)-3-pyridyl]acetamide] stands 0.0001 to 10 µM; under `COc1ncc(NC(=O)Cc2ccc(-c3cnc4[nH]c(-c5ccnc(C#N)c5)cc4c3)cc2F)cc1C(F)(F)F` [Compound P-0013, 2-[4-[2-(2-cyano-4-pyridyl)-1H-pyrrolo[2,3-b]pyridin-5-yl]-2-fluoro-phenyl]-N-[6-methoxy-5-(trifluoromethyl)-3-pyridyl]acetamide], 0.0001 to 10 µM.

As a reminder, the IC50 is the point on the concentration scale where inhibition reaches its midpoint.
